According to the supplement of paper PMC10307832:

Legend:
Assay in all cases: relative viability (nuclei count vs DMSO), 5 days (fraction); higher = more cells survive
[1] = compound: Cc1nc(Nc2ncc(C(=O)Nc3c(C)cccc3Cl)s2)cc(N2CCN(CCO)CC2)n1 [Dasatinib] + COc1cccc2cc(-c3nc([C@H]4CC[C@H](C(=O)O)CC4)n4ncnc(N)c34)[nH]c12 [OSI-027] (partner 0.5 µM)
Procedure, shortened: (§1)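 Lung cancer cell lines were seeded in 1536-well plates and dosed by pin tool the next day, with either a single drug or a fixed anchor-drug dose combined with five library-drug doses (not always all listed) spaced in √10 steps. Five days later, one step fixed the cells and stained their nuclei (final 0.05% Triton X-100, 1% formaldehyde, 1 ug/ml Hoechst), and nuclei were counted on 4× images. Relative viability is the nuclei count in treated wells divided by the count in vehicle wells, and each value is the median of duplicate plates.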

[2] = compound: Cc1ccc(C(=O)Nc2cccc(C(F)(F)F)c2)cc1Nc1cncc(C(N)=O)c1 [ALW-II-49-7] + Nc1nc2[nH]cc(CCc3ccc(C(=O)N[C@@H](CCC(=O)O)C(=O)O)cc3)c2c(=O)[nH]1 [Pemetrexed] (partner 0.2 µM)
Procedure, shortened: as §1

[3] = compound: C1CC1C(=O)NC2=NNC3=C2C=CC(=C3)C4=CC(=CC=C4)C(=O)NC5CC5 [XMD13-2] + COc1cc2c(Oc3ccc(NC(=O)C4(C(=O)Nc5ccc(F)cc5)CC4)cc3F)ccnc2cc1OCCCN1CCOCC1 [Foretinib] (partner 0.25 µM)
Procedure, shortened: as §1

[4] = compound: Cc1ccc(C(=O)Nc2cccc(C(F)(F)F)c2)cc1Nc1cncc(C(N)=O)c1 [ALW-II-49-7] + Cc1nc(NC(=O)N2CCC[C@H]2C(N)=O)sc1-c1ccnc(C(C)(C)C(F)(F)F)c1 [Alpelisib] (partner 2 µM)
Procedure, shortened: as §1

Cell Line	relative viability ([1]; first compound 0.005 µM)	relative viability ([1]; first compound 0.01581 µM)	relative viability ([1]; first compound 0.05 µM)	relative viability ([1]; first compound 0.1581 µM)	relative viability ([1]; first compound 0.5 µM)	relative viability ([2]; first compound 0.08 µM)	relative viability ([2]; first compound 0.253 µM)	relative viability ([2]; first compound 0.8 µM)	relative viability ([2]; first compound 2.53 µM)	relative viability ([2]; first compound 8 µM)	relative viability ([3]; first compound 0.05 µM)	relative viability ([3]; first compound 0.1581 µM)	relative viability ([3]; first compound 0.5 µM)	relative viability ([3]; first compound 1.581 µM)	relative viability ([3]; first compound 5 µM)	relative viability ([4]; first compound 0.08 µM)	relative viability ([4]; first compound 0.253 µM)	relative viability ([4]; first compound 0.8 µM)	relative viability ([4]; first compound 2.53 µM)	relative viability ([4]; first compound 8 µM)
NCI-H1993	0.512	0.524	0.491	0.532	0.554	0.61	0.515	0.631	0.591	0.64	0.838	0.689	0.775	0.785	0.507	0.691	0.644	0.671	0.72	0.688
LOU-NH91	0.705	0.604	0.595	0.526	0.344	0.298	0.361	0.35	–	0.338	1.01	0.979	1	0.943	1.04	0.648	0.72	0.729	0.388	0.797
SW 900	0.588	0.547	0.481	0.311	0.14	0.449	0.492	–	0.517	0.316	1.1	0.963	0.922	0.963	0.677	–	–	–	–	–
LCLC-103H	0.437	0.38	0.403	0.38	0.146	0.533	0.502	0.477	0.462	0.419	0.759	0.726	0.735	0.61	0.575	0.933	0.968	0.993	1.14	0.972
NCI-H1915	0.559	0.516	0.463	0.187	0.164	0.451	0.546	0.49	0.457	0.375	1.12	1.08	1.12	1.11	1.21	1.1	1.13	1.08	0.978	0.731
IA-LM	–	–	–	–	–	–	–	–	–	–	1.07	1.29	1.12	1.11	0.621	0.768	0.523	0.653	0.321	0.112
NCI-H1734	0.562	0.432	0.476	0.411	0.307	0.427	0.448	0.428	0.404	0.443	1.05	0.843	0.864	0.8	0.658	0.645	0.774	0.657	0.694	0.577
SK-MES-1	0.738	0.57	0.409	0.21	0.14	0.888	0.964	0.916	0.867	0.686	0.866	0.967	1.06	0.87	1.15	0.852	0.802	0.891	0.779	0.753
Calu-6	–	–	–	–	–	–	–	–	–	–	0.954	0.906	0.89	0.909	0.772	1.04	0.984	0.95	0.91	0.791
HCC-15	0.641	0.652	0.526	0.412	0.454	0.214	0.227	0.228	0.227	0.241	1.14	1	1.14	0.981	0.62	0.901	0.931	0.949	0.907	0.845
SK-LU-1	0.271	0.167	0.167	0.14	0.152	0.992	1.08	1.04	0.834	0.569	1.04	0.854	0.933	0.81	0.697	0.966	1.01	1.11	0.674	0.558
NCI-H2023	0.418	0.326	0.248	0.26	0.211	0.235	0.23	0.237	0.214	0.242	0.82	0.825	0.791	0.798	0.864	0.66	0.575	0.657	0.641	0.677
NCI-H1650	0.571	0.355	0.318	0.219	0.171	0.352	0.379	0.383	0.378	0.406	1.36	1.07	1.15	0.967	1.81	–	–	–	–	–
NCI-H2342	0.563	0.503	0.518	0.403	0.36	0.681	0.856	0.771	0.791	0.744	0.973	1.04	1.11	0.984	1.01	–	–	–	–	–
NCI-H1299	–	–	–	–	–	–	–	–	–	–	1.02	1.12	1.15	1.14	1.16	1.08	0.974	1.11	1.17	0.968
NCI-H522	0.72	0.69	0.643	0.596	0.632	0.909	0.874	0.958	1.07	1.01	–	–	–	–	–	–	–	–	–	–
NCI-H1623	0.423	0.393	0.396	0.462	0.339	–	–	–	–	–	0.898	0.864	0.892	0.824	0.947	–	–	–	–	–
NCI-H1648	0.264	0.274	0.306	0.268	0.24	0.579	0.934	0.802	0.52	0.738	–	–	–	–	–	–	–	–	–	–
NCI-H1703	–	–	–	–	–	–	–	–	–	–	0.303	0.411	–	0.336	0.393	0.331	0.322	0.258	0.297	0.182
ABC-1	0.506	0.429	0.363	0.36	0.345	–	–	–	–	–	0.949	1.1	1.41	1.03	0.846	0.945	0.937	1.06	0.967	0.973
ChaGo-K-1	0.556	0.501	0.52	0.459	0.423	0.266	0.274	0.263	0.268	0.262	0.883	0.885	0.944	0.882	0.932	–	–	–	–	–
